Source: paper PMC9897032, “How Many Sirtuin Genes Are Out There? Evolution of Sirtuin Genes in Vertebrates With a Description of a New Family Member” (Molecular Biology and Evolution, 2023)

Target: T1, human SIRT3 (Homo sapiens, UniProt Q9NTG7)
T1 construct: recombinant enzyme supplied with Abcam fluorometric SIRT3 activity kit
T1 sequence (Q9NTG7 102-399): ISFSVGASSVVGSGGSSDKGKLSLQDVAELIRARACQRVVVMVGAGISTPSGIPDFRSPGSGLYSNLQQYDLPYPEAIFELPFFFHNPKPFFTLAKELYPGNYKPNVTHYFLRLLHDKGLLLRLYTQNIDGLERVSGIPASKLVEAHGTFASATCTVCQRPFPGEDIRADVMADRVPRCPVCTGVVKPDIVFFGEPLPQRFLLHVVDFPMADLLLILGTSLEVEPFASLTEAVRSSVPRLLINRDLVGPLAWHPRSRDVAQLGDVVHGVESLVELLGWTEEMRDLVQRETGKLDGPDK
Experiment: fluorometric deacetylation assay, acetylated substrate peptide (Abcam ab156067)
Format: biochemical
Conditions: activator; 37 °C; NAD+ dependent assay

## Oc1ccc(/C=C/c2cc(O)cc(O)c2)cc1 [REV, resveratrol]
  fold increase in activity at 100 μM: 1.6 ± 0.1 fold
